Holding throughout (assay): NCI-60 cell line screen, 48 h
In assay [1] the test system is SK-OV-3.
Assay [2] deals with M14.
Assay [3] has as its system EKVX.
Assay [4] concerns OVCAR-8.
The subject of assay [5] is 786-0.
Assay [6] concerns NCI/ADR-RES.
The test system of assay [7] is SN12C.
For assay [8], the system named is HT-29.
Assay [9] deals with SK-MEL-2.
For assay [10], the system named is SW-620.
Assay [11] relates to NCI-H522.
Assay [12] relates to MCF7.
The test system of assay [13] is NCI-H23.
The test system of assay [14] is UACC-62.
In assay [15] the test system is SF-268.
Assay [16] relates to PC-3.
Assay [17] relates to SR.
Assay [18] relates to MDA-N.
In assay [19] the test system is MDA-MB-435.
Assay [20] concerns CAKI-1.

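Assay format: 96-well plates, 48-hour exposure. GI50 marks 50% less growth.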 Active and inactive are the calls of the source. Cut-off read from the data, not from the text of the source: active = GI50 up to about 1.1 µM and inactive = higher.

`c1ccc2cc(CN3CCC(C4CCN(Cc5ccc6ccccc6c5)CC4)CC3)ccc2c1`: the GI50 in assay [1] was 10.1 µM (inactive); in assay [2] it was 1.91 µM (inactive); in assay [3] it was 8.24 µM (inactive); in assay [4], 3.92 µM (inactive); in [5] it was 2.45 µM (inactive); in [6], 6.79 µM (inactive). Also, the GI50 in assay [7] is 21.8 µM (inactive); in assay [8] it was 1.52 µM (inactive); in assay [9] it was 2.18 µM (inactive); in [10], 2.74 µM (inactive); in assay [11], 1.89 µM (inactive); in [12], 2.06 µM (inactive). Also, the GI50 in assay [13] is 11.4 µM (inactive); in assay [14] it was 2.03 µM (inactive); in [15] it was 8.53 µM (inactive); in assay [16], 9.42 µM (inactive); in assay [17] it was 3.24 µM (inactive); in [18], 1.96 µM (inactive). The GI50 in [19] is 1.75 µM (inactive); in assay [20], 5.53 µM (inactive).
Take `CCOC(=O)C1=C(C(=O)OCC)SC2(S1)C(C(=O)OCC)=C(C(=O)OCC)Sc1c2ssc1=O`: the GI50 in assay [1] is 6.12 µM (inactive); in assay [2], 2.04 µM (inactive); in assay [3], 2.34 µM (inactive); in assay [4], 1.6 µM (inactive); in assay [5], 0.811 µM (active); in assay [6], 2.71 µM (inactive). Moreover, the GI50 in [7] is 0.918 µM (active); in assay [8], 1.76 µM (inactive); in assay [9], 2.17 µM (inactive); in [10], 0.361 µM (active); in assay [11] it was 1.36 µM (inactive); in [12] it was 1.74 µM (inactive). Also, the GI50 is 1.93 µM (inactive) in assay [13]; 1.94 µM (inactive) in [14]; 1.97 µM (inactive) in [15]; 1.44 µM (inactive) in [16]; < 0.01 µM (active) in [17]; 1.97 µM (inactive) in assay [18]. Further, the GI50 is 1.99 µM (inactive) in assay [19] and 2.42 µM (inactive) in [20].
On to `CCC1CC(C)C(O)/C=C/C=C/CC(C)OC(=O)CC(O)C(OC)C1OC1OC(C)CC(O)(C(C)=O)C1O` (stereo not given), for which the GI50 was > 100 µM (inactive) in assay [1]; 78.5 µM (inactive) in assay [2]; 57.7 µM (inactive) in [3]; > 100 µM (inactive) in [4]; > 100 µM (inactive) in assay [5]; 49 µM (inactive) in assay [6]. In addition, the GI50 is 42.1 µM (inactive) in assay [7]; 59.4 µM (inactive) in assay [8]; 39.1 µM (inactive) in [9]; > 100 µM (inactive) in [10]; 13.3 µM (inactive) in assay [11]; 40.3 µM (inactive) in [12]. The GI50 in assay [13] is 45.2 µM (inactive); in assay [14] it was > 100 µM (inactive); in [15], 83.6 µM (inactive); in [16] it was 66.1 µM (inactive); in [17], 14.1 µM (inactive); in [18], 36.4 µM (inactive). Also, the GI50 in [19] was > 100 µM (inactive); in assay [20], 13.1 µM (inactive).
With `CN1CC2=C(OC(N)=C(C#N)C2c2cccs2)/C(=C/c2cccs2)C1` (stereo not given), the GI50 is 55.7 µM (inactive) in [1]; 13.1 µM (inactive) in assay [2]; 6.01 µM (inactive) in assay [3]; 6.44 µM (inactive) in [4]; 31.3 µM (inactive) in assay [5]; 3.41 µM (inactive) in [6]. In addition, the GI50 in [7] was 34.8 µM (inactive); in [8], 12.7 µM (inactive); in assay [9], > 35.1 µM (inactive); in assay [10] it was 42.8 µM (inactive); in [11], 7.94 µM (inactive); in [12] it was 0.223 µM (active). Also, the GI50 in [13] is 7.18 µM (inactive); in assay [14], 19.7 µM (inactive); in assay [15], 13.5 µM (inactive); in [16], 5.31 µM (inactive); in assay [17] it was 4.17 µM (inactive); in [18], 5.64 µM (inactive). For the same molecule, the GI50 in [19] was 6.1 µM (inactive); in [20], 38.8 µM (inactive).
As to `O/N=C(/CC(O)(C(F)(F)F)C(F)(F)F)c1ccccc1`, the GI50 in assay [1], in [2], in assay [3], in assay [4], in assay [5] and in [6] was > 10 µM (inactive) in each case. Besides, the GI50 in assay [7], in assay [8], in assay [9], in assay [10], in assay [11] and in [12] was > 10 µM (inactive) each time. In addition, the GI50 in assay [13], in assay [14], in assay [15], in [16], in [17] and in [18] was > 10 µM (inactive) each time. For the same molecule, the GI50 in assay [19] and in [20] was > 10 µM (inactive) each time.
With `O=C1C2CCCCC2C(=O)N1n1c(Cc2ccc(Cl)cc2)n[nH]c1=O` (stereo not given), the GI50 in assay [1], in [2], in [3], in [4], in assay [5] and in [6] was > 100 µM (inactive) in each case. In addition, the GI50 in assay [7], in [8], in assay [9], in assay [10], in [11] and in [12] was > 100 µM (inactive) throughout. The GI50 in assay [13], in assay [14], in assay [15], in assay [16], in assay [17] and in assay [18] was > 100 µM (inactive) throughout. Besides, the GI50 in assay [19] and in assay [20] was > 100 µM (inactive) in each case.
As to `O=C(CC(NC(=O)OCc1ccccc1)C(=O)NC1Cc2ccccc2C1=O)OCc1ccccc1` (stereo not given), the GI50 in assay [1], in assay [2], in [3], in [4], in assay [5] and in assay [6] was > 100 µM (inactive) each time. Also, the GI50 in assay [7], in assay [8], in assay [9], in assay [10], in [11] and in assay [12] was > 100 µM (inactive) throughout. Also, the GI50 in assay [13], in assay [14], in assay [15], in [16], in assay [17] and in assay [18] was > 100 µM (inactive) in each case. Moreover, the GI50 in assay [19] and in assay [20] was > 100 µM (inactive) in each case.
Take `O=C1C=Cc2c(Br)sc(Br)c21`: the GI50 is 88.1 µM (inactive) in assay [1]; 25.9 µM (inactive) in assay [2]; 26.1 µM (inactive) in assay [3]; 26.5 µM (inactive) in [4]; 34.9 µM (inactive) in [5]; 36.1 µM (inactive) in assay [6]. Also, the GI50 in [7] is 39.8 µM (inactive); in [8], 28.2 µM (inactive); in assay [9], 26.9 µM (inactive); in assay [10], 18 µM (inactive); in assay [11], 26.1 µM (inactive); in [12] it was 19.3 µM (inactive). Further, the GI50 in assay [13] was 26.7 µM (inactive); in assay [14] it was 23.7 µM (inactive); in assay [15] it was 30.5 µM (inactive); in [16], 19.7 µM (inactive); in [17], 24.7 µM (inactive); in [18], 30.1 µM (inactive). For the same molecule, the GI50 is 19.1 µM (inactive) in [19] and 19.6 µM (inactive) in [20].
With `CC(=O)NCCC1CN(C(=O)/C=C/I)c2ccccc21` (stereo not given), the GI50 in assay [1] was 14.7 µM (inactive); in assay [2], 3.37 µM (inactive); in assay [3], 15.4 µM (inactive); in [4], 9.79 µM (inactive); in assay [5], 1.32 µM (inactive); in assay [6], 10.1 µM (inactive). For the same molecule, the GI50 is 3.93 µM (inactive) in [7]; 5.51 µM (inactive) in assay [8]; 3.29 µM (inactive) in assay [9]; 2.1 µM (inactive) in [10]; 1.39 µM (inactive) in assay [11]; 0.308 µM (active) in assay [12]. For the same molecule, the GI50 in [13] was 11.9 µM (inactive); in [14], 5.07 µM (inactive); in assay [15] it was 9.08 µM (inactive); in [16] it was 8.81 µM (inactive); in [17], 2.9 µM (inactive); in assay [18], 3.08 µM (inactive). The GI50 in assay [19] is 5.93 µM (inactive); in assay [20], 4.75 µM (inactive).
For the molecule `CSc1n[nH]c2[nH]nc(C)c12`, the GI50 in [1], in assay [2], in assay [3], in assay [4], in assay [5] and in [6] was > 100 µM (inactive) each time. Further, the GI50 in assay [7], in assay [8], in assay [9], in assay [10], in assay [11] and in [12] was > 100 µM (inactive) in each case. Moreover, the GI50 is > 100 µM (inactive) in [13]; > 100 µM (inactive) in assay [14]; > 100 µM (inactive) in assay [15]; > 100 µM (inactive) in [16]; 5.22 µM (inactive) in assay [17]; > 100 µM (inactive) in assay [18]. Further, the GI50 in assay [19] and in [20] was > 100 µM (inactive) each time.

Source of the values: ChEMBL document CHEMBL1201862, “PubChem BioAssay data set” (2004).
